# Data from patent US10750743B2, “Pyridazinone herbicides” (E.I. DU PONT DE NEMOURS AND COMPANY, priority 2015, dated 2020).
# Key:
# Assay type in all cases: in vivo
# [1] = test system: ducksalad (Heteranthera limosa); assay: Test B flooded paddy test, visual rating; details: Heteranthera limosa, 360 h; Flood, 250 g ai/ha, applied to paddy water, rated after 13 to 15 d; read-out: Ducksalad plant response rating (0 to 100 scale, 0 is no effect, 100 is complete control)
# In short: (§1)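 Plants at the 2-leaf stage were flooded to 3 cm above soil, and test compounds were applied directly into the paddy water, which was held at that depth throughout. After 13 to 15 d in a greenhouse, injury was rated visually against untreated controls on a 0–100 scale (0 no effect, 100 complete control).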
# [2] = test system: barnyardgrass (Echinochloa crus-galli); assay: Test B flooded paddy test, visual rating; details: Echinochloa crus-galli, 360 h; Flood, 250 g ai/ha, applied to paddy water, rated after 13 to 15 d; read-out: Barnyardgrass plant response rating (0 to 100 scale, 0 is no effect, 100 is complete control)
# In short: as §1
# rice (Oryza sativa) = assay: Test B flooded paddy test, visual rating; details: Oryza sativa, 360 h; Flood, 250 g ai/ha, applied to paddy water, rated after 13 to 15 d; read-out: Rice plant response rating (0 to 100 scale, 0 is no effect, 100 is complete control)
# In short: as §1
# [3] = test system: ragweed (common ragweed, Ambrosia elatior); assay: Test A preemergence, directed soil spray, visual injury rating; details: Ambrosia artemisiifolia, pre-emergence, 240 h, 0 is no effect, 100 is complete control, read-out: Plant response rating (0 to 100 scale), Ragweed; for pest or weed control at 125 g/ha: 125 g ai/ha; for pest or weed control at 500 g/ha: 500 g ai/ha
# In short: (§2)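 Seeds sown in a loam soil–sand blend received a directed preemergence soil spray of test chemical in a non-phytotoxic solvent mixture with surfactant. Postemergence plants were sprayed at 2 to 10 cm, one- to two-leaf stage. After approximately 10 d in greenhouse, injury was visually rated 0 (no effect) to 100 (complete control) against untreated controls.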
# kochia (Kochia scoparia) [4] = assay: as above; details: Bassia scoparia, pre-emergence, 240 h, 0 is no effect, 100 is complete control, read-out: Plant response rating (0 to 100 scale), Kochia; for pest or weed control at 125 g/ha: 125 g ai/ha; for pest or weed control at 500 g/ha: 500 g ai/ha
# In short: as §2
# [5] = test system: barnyardgrass (Echinochloa crus-galli); assay: as above; details: Echinochloa crus-galli, pre-emergence, 240 h, 0 is no effect, 100 is complete control, read-out: Plant response rating (0 to 100 scale), Barnyardgrass; for pest or weed control at 125 g/ha: 125 g ai/ha; for pest or weed control at 500 g/ha: 500 g ai/ha
# In short: as §2
# [6] = test system: pigweed (Amaranthus retroflexus); assay: as above; details: Amaranthus retroflexus, pre-emergence, 240 h, 0 is no effect, 100 is complete control, read-out: Plant response rating (0 to 100 scale), Pigweed; for pest or weed control at 125 g/ha: 125 g ai/ha; for pest or weed control at 500 g/ha: 500 g ai/ha
# In short: as §2
# [7] = test system: foxtail, giant (giant foxtail, Setaria faberii); assay: as above; details: Setaria faberi, pre-emergence, 240 h, 0 is no effect, 100 is complete control, read-out: Plant response rating (0 to 100 scale), Foxtail, Giant; for pest or weed control at 125 g/ha: 125 g ai/ha; for pest or weed control at 500 g/ha: 500 g ai/ha
# In short: as §2
# [8] = test system: ryegrass, It. (Italian ryegrass, Lolium multiflorum); assay: as above; details: Lolium multiflorum, pre-emergence, 240 h, 0 is no effect, 100 is complete control, read-out: Plant response rating (0 to 100 scale), Ryegrass, It.; for pest or weed control at 125 g/ha: 125 g ai/ha; for pest or weed control at 500 g/ha: 500 g ai/ha
# In short: as §2
# [9] = test system: ragweed (common ragweed, Ambrosia elatior); assay: Test A postemergence application, visual injury rating; details: Ambrosia artemisiifolia, post-emergence, 240 h, 0 to 100 scale, 0 no effect, 100 complete control, read-out: Ragweed plant response rating; for pest or weed control at 125 g/ha: 125 g ai/ha; for pest or weed control at 500 g/ha: 500 g ai/ha
# In short: as §2
# kochia (Kochia scoparia) [10] = assay: as above; details: Bassia scoparia, post-emergence, 240 h, 0 to 100 scale, 0 no effect, 100 complete control, read-out: Kochia plant response rating; for pest or weed control at 125 g/ha: 125 g ai/ha; for pest or weed control at 500 g/ha: 500 g ai/ha
# In short: as §2
# [11] = test system: barnyardgrass (Echinochloa crus-galli); assay: as above; details: Echinochloa crus-galli, post-emergence, 240 h, 0 to 100 scale, 0 no effect, 100 complete control, read-out: Barnyardgrass plant response rating; for pest or weed control at 125 g/ha: 125 g ai/ha; for pest or weed control at 500 g/ha: 500 g ai/ha
# In short: as §2
# [12] = test system: pigweed (Amaranthus retroflexus); assay: as above; details: Amaranthus retroflexus, post-emergence, 240 h, 0 to 100 scale, 0 no effect, 100 complete control, read-out: Pigweed plant response rating; for pest or weed control at 125 g/ha: 125 g ai/ha; for pest or weed control at 500 g/ha: 500 g ai/ha
# In short: as §2
# [13] = test system: galium (catchweed bedstraw, Galium aparine); assay: as above; details: Galium, post-emergence, 240 h, 0 to 100 scale, 0 no effect, 100 complete control, read-out: Galium plant response rating; for pest or weed control at 125 g/ha: 125 g ai/ha; for pest or weed control at 500 g/ha: 500 g ai/ha
# In short: as §2
# [14] = test system: foxtail, giant (giant foxtail, Setaria faberii); assay: as above; details: Setaria faberi, post-emergence, 240 h, 0 to 100 scale, 0 no effect, 100 complete control, read-out: Foxtail, Giant plant response rating; for pest or weed control at 125 g/ha: 125 g ai/ha; for pest or weed control at 500 g/ha: 500 g ai/ha
# In short: as §2
# [15] = test system: ryegrass, It. (Italian ryegrass, Lolium multiflorum); assay: as above; details: Lolium multiflorum, post-emergence, 240 h, 0 to 100 scale, 0 no effect, 100 complete control, read-out: Ryegrass, It. plant response rating; for pest or weed control at 125 g/ha: 125 g ai/ha; for pest or weed control at 500 g/ha: 500 g ai/ha
# In short: as §2
# [16] = test system: blackgrass (Alopecurus myosuroides); assay: as above; details: Alopecurus myosuroides, post-emergence, 240 h, 0 to 100 scale, 0 no effect, 100 complete control, read-out: Blackgrass plant response rating; for pest or weed control at 125 g/ha: 125 g ai/ha; for pest or weed control at 500 g/ha: 500 g ai/ha
# In short: as §2
# corn (Zea mays) = assay: as above; details: Zea mays, post-emergence, 240 h, 0 to 100 scale, 0 no effect, 100 complete control, read-out: Corn plant response rating; for plant injury at 125 g/ha: 125 g ai/ha; for plant injury at 500 g/ha: 500 g ai/ha
# In short: as §2
# [17] = test system: wheat (Triticum aestivum); assay: as above; details: Triticum aestivum, post-emergence, 240 h, 0 to 100 scale, 0 no effect, 100 complete control, read-out: Wheat plant response rating; for plant injury at 125 g/ha: 125 g ai/ha; for plant injury at 500 g/ha: 500 g ai/ha
# In short: as §2
structure (smiles),measurement,setting,value
"CC(=O)Oc1c(C)nn(C)c(=O)c1-c1c(C)ccc2cc(C)oc12 [Compound 11, 5-(acetyloxy)-4-(2,6-dimethyl-7-benzofuranyl)-2,6-dimethyl-3(2H)-pyridazinone]",pest or weed control at 250 g/ha,[1],0%
same,pest or weed control at 250 g/ha,[2],0%
same,plant injury at 250 g/ha,rice (Oryza sativa),0%
same,pest or weed control at 125 g/ha,[3],90%
same,pest or weed control at 500 g/ha,[3],100%
same,pest or weed control at 125 g/ha,kochia (Kochia scoparia) [4],90%
same,pest or weed control at 500 g/ha,kochia (Kochia scoparia) [4],100%
same,pest or weed control at 125 g/ha,[5],50%
same,pest or weed control at 500 g/ha,[5],100%
same,pest or weed control at 125 g/ha,[6],100%
same,pest or weed control at 500 g/ha,[6],100%
same,pest or weed control at 125 g/ha,[7],50%
same,pest or weed control at 500 g/ha,[7],100%
same,pest or weed control at 125 g/ha,[8],100%
same,pest or weed control at 500 g/ha,[8],100%
same,pest or weed control at 125 g/ha,[9],100%
same,pest or weed control at 500 g/ha,[9],100%
same,pest or weed control at 125 g/ha,kochia (Kochia scoparia) [10],100%
same,pest or weed control at 500 g/ha,kochia (Kochia scoparia) [10],100%
same,pest or weed control at 125 g/ha,[11],30%
same,pest or weed control at 500 g/ha,[11],60%
same,pest or weed control at 125 g/ha,[12],90%
same,pest or weed control at 500 g/ha,[12],100%
same,pest or weed control at 125 g/ha,[13],90%
same,pest or weed control at 500 g/ha,[13],90%
same,pest or weed control at 125 g/ha,[14],60%
same,pest or weed control at 500 g/ha,[14],80%
same,pest or weed control at 125 g/ha,[15],100%
same,pest or weed control at 500 g/ha,[15],100%
same,pest or weed control at 125 g/ha,[16],60%
same,pest or weed control at 500 g/ha,[16],90%
same,plant injury at 125 g/ha,corn (Zea mays),0%
same,plant injury at 500 g/ha,corn (Zea mays),30%
same,plant injury at 125 g/ha,[17],0%
same,plant injury at 500 g/ha,[17],40%
"CC(=O)Oc1c(C)nn(C)c(=O)c1-c1cccc2cc(C)oc12 [Compound 13, 5-(acetyloxy)-2,6-dimethyl-4-(2-methyl-7-benzofuranyl)-3 (2H)-pyridazinone]",pest or weed control at 125 g/ha,[3],40%
same,pest or weed control at 500 g/ha,[3],80%
same,pest or weed control at 125 g/ha,kochia (Kochia scoparia) [4],0%
same,pest or weed control at 500 g/ha,kochia (Kochia scoparia) [4],100%
same,pest or weed control at 125 g/ha,[5],20%
same,pest or weed control at 500 g/ha,[5],60%
same,pest or weed control at 125 g/ha,[6],40%
same,pest or weed control at 500 g/ha,[6],100%
same,pest or weed control at 125 g/ha,[7],10%
same,pest or weed control at 500 g/ha,[7],60%
same,pest or weed control at 125 g/ha,[8],100%
same,pest or weed control at 500 g/ha,[8],100%
same,pest or weed control at 125 g/ha,[9],50%
same,pest or weed control at 500 g/ha,[9],70%
same,pest or weed control at 125 g/ha,kochia (Kochia scoparia) [10],50%
same,pest or weed control at 500 g/ha,kochia (Kochia scoparia) [10],80%
same,pest or weed control at 125 g/ha,[11],0%
same,pest or weed control at 500 g/ha,[11],50%
same,pest or weed control at 125 g/ha,[12],60%
same,pest or weed control at 500 g/ha,[12],70%
same,pest or weed control at 125 g/ha,[13],80%
same,pest or weed control at 500 g/ha,[13],90%
same,pest or weed control at 125 g/ha,[14],30%
same,pest or weed control at 500 g/ha,[14],50%
same,pest or weed control at 125 g/ha,[15],90%
same,pest or weed control at 500 g/ha,[15],100%
same,pest or weed control at 125 g/ha,[16],60%
same,pest or weed control at 500 g/ha,[16],80%
same,plant injury at 125 g/ha,corn (Zea mays),0%
same,plant injury at 500 g/ha,corn (Zea mays),20%
same,plant injury at 125 g/ha,[17],0%
same,plant injury at 500 g/ha,[17],20%
